Source: PMC5917092, “Fine-Tuned Enzymatic Hydrolysis of Organosolv Pretreated Forest Materials for the Efficient Production of Cellobiose” (Frontiers in Chemistry, 2018)
Entries after “also recorded” stand apart in the source; their conditions may differ.

Assays:
TtCBH7 = TtCBH7 (Thermothelomyces thermophilus, UniProt G2Q665); assay: Kinetics and inhibition of TtCBH7 by mono/oligosaccharides with MUG2 as substrate (Lineweaver-Burk); assay type: biochemical, Thermothelomyces thermophila; conditions: for Kmapp: TtCBH7, substrate MUG2, in the presence of 10 mM inhibitor; for Inhibitory effect on TtCBH7 (in words): activity on MUG2, inhibitor 5 and 10 mM
Chain of TtCBH7 (G2Q665 entry or part of it): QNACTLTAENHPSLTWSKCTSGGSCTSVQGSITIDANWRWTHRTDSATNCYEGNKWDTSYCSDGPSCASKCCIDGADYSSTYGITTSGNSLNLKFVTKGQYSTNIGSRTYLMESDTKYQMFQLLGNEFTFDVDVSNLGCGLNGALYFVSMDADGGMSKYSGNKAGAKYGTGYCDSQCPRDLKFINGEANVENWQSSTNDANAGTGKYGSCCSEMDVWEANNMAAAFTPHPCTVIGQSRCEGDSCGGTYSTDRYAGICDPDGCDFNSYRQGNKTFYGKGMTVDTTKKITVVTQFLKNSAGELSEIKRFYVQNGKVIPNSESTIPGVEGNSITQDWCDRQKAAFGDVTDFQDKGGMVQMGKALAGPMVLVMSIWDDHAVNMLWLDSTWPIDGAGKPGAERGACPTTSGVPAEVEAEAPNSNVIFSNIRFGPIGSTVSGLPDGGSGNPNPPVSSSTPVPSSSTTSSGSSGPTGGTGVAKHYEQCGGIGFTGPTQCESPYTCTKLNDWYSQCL
Description: (§1) The release of methyl-umbelliferyl was followed by measuring the absorbance at A350. The inhibition of CBHs by specific mono/oligosaccharides was determined by estimating the enzymatic activity on MUG2 in presence of different inhibitor concentrations (5 and 10 mM). Kinetic analysis of inhibition was carried out on xylose (X1), xylobiose (X2), xylotriose (X3), mannose (M1), mannobiose (M2), mannotriose (M3), glucose (G1), cellobiose (G2), and xylosyl-cellobiose (XC). Lineweaver–Burk plots were drawn to determine Km, Vmax, and inhibition constant (Ki) values.
Figure 4 Inhibition studies of TtCBH7 by glucan, xylan, and mannan mono- and oligo-saccharides. Absorbance at 355 nm was measured after 30 min incubation with MUG2 at concentrations ranging from 0.1 to 2 mM, at 45°C, pH 5.0.

TtCBH6 = assay: Kinetics and inhibition of TtCBH6 by mono/oligosaccharides with MUG2 as substrate (Lineweaver-Burk); assay type: biochemical, Thermothelomyces thermophila; conditions: for Inhibitory effect on TtCBH6 (in words): activity on MUG2, inhibitor 5 and 10 mM
Description: as §1, with “[…].” for “A350.”, “Lineweaver-Burk” for “Lineweaver–Burk”

[1] = TtCBH7, substrate MUG2, inhibitor 5 mM (Km app)
[2] = TtCBH7, substrate MUG2, inhibitor 10 mM
[3] = TtCBH7, substrate MUG2, inhibitor 10 mM (Km app)
[4] = TtCBH6, substrate MUG2, inhibitor 5 mM (Km app)
[5] = TtCBH6, substrate MUG2, inhibitor 10 mM (Km app)

Row | Compound | Kmapp (TtCBH7) | Ki (TtCBH7; TtCBH7, substrate MUG2, inhibitor 5 mM) | Km/Km^app (TtCBH7; [1]) | Ki (TtCBH7; [2]) | Km/Km^app (TtCBH7; [3]) | Inhibitory effect on TtCBH7 (in words) (TtCBH7) | Km/Km^app (TtCBH6; [4]) | Km/Km^app (TtCBH6; [5]) | Inhibitory effect on TtCBH6 (in words) (TtCBH6) | Km (TtCBH7; TtCBH7, absence of any inhibitor) | Km/Km^app (TtCBH7; TtCBH7, substrate MUG2, no inhibitor (Km), pH 5.0, 45°C) | Km/Km^app (TtCBH6; TtCBH6, substrate MUG2, no inhibitor (Km), pH 5.0, 45°C)
1 | O=C[C@H](O)[C@@H](O)[C@H](O[C@@H]1O[C@H](CO)[C@@H](O)[C@H](O)[C@H]1O)[C@H](O)CO [Cellobiose, cellobiose] | 6.54 mM | 1.43 mM | 4.04 µM | 1.59 mM | 6.54 µM | strong inhibitor; also recorded: strongly inhibited | 0.40 µM | 0.45 µM | no inhibitory effect | – | – | –
2 | mannotriose | – | – | 0.88 µM | – | 0.98 µM | very weak inhibitory effect | 0.41 µM | 0.44 µM | – | – | – | –
3 | OC[C@H]1OC(O)[C@H](O)[C@@H](O)[C@@H]1O (some centres unmarked) [Glucose, glucose] | 1.58 mM | – | 1.00 µM | 13.2 mM | 1.58 µM | – | 0.39 µM | 0.41 µM | no inhibitory effect | – | – | –
4 | OC1OC[C@@H](O[C@@H]2OC[C@@H](O)[C@H](O)[C@H]2O)[C@H](O)[C@H]1O (some centres unmarked) [Xylobiose, xylobiose] | 1.17 mM | – | 0.81 µM | 33.3 mM | 1.17 µM | – | 0.44 µM | 0.41 µM | – | – | – | –
5 | OC[C@H]1O[C@@H](O[C@H]2[C@H](O)[C@H](O)C(O)O[C@@H]2CO)[C@@H](O)[C@@H](O)[C@@H]1O (some centres unmarked) [Mannobiose, mannobiose] | 1.04 mM | – | 0.91 µM | – | 1.04 µM | – | 0.38 µM | 0.35 µM | – | – | – | –
6 | xylosyl-cellobiose | – | – | 0.99 µM | – | 1.01 µM | – | 0.43 µM | 0.48 µM | – | – | – | –
7 | OC1OC[C@@H](O[C@@H]2OC[C@@H](O[C@@H]3OC[C@@H](O)[C@H](O)[C@H]3O)[C@H](O)[C@H]2O)[C@H](O)[C@H]1O (some centres unmarked) [Xylotriose, xylotriose] | – | – | 0.77 µM | – | 0.95 µM | very weak inhibitory effect | 0.42 µM | 0.46 µM | – | – | – | –
8 | Cc1cc(=O)oc2cc(O[C@@H]3O[C@H](CO)[C@@H](O[C@@H]4O[C@H](CO)[C@@H](O)[C@H](O)[C@H]4O)[C@H](O)[C@H]3O)ccc12 [MUG2, 4-methyl-umbelliferyl-β-cellobiose] | – | – | – | – | – | – | – | – | – | 900 µM | 0.90 µM | 0.42 µM
